Results on five molecules are retold here after patent publication US6465204B1, “Amidase” (Diversa Corporation, priority 1996, dated 2002).

Series [1] has as its system Thermococcus GU5L5 amidase. The series is described as follows: Activity and enantioselectivity of the amidase in increasing concentrations of DMF. Type of series: biochemical. To be noted: for Initial Rate: RT, cell lysate, pH 7.5 Hepes. How it is done: The activity and enantioselectivity of the amidase in increasing concentrations of dimethyl formamide (DMF) was tested as follows: to each well of a microtiter plate was added 30 μL of 1 mM CBZ-L-arg-AMC or CBZ-D-arg-AMC in DMF, 30 μL of cell lysate containing the amidase activity, and 240 μL of a variable mixture of DMF:pH 7.5, 50 mM Hepes buffer. The reactiosn were incubated at RT for 1 hour and the fluorescence measured at 1 minute intervals.

The test system of series [2] is Thermococcus GU5L5 amidase. The series is described as follows: Substrate specificity of the amidase (fluorogenic substrates). It counts as biochemical. To be noted: substrate 100 μM, 1 hour at 70° C.; ratio between substrates. The procedure: Fifty μL of the ‘600 μM stock solution’ was added to each of the wells of a white condensed plate using the Biomek to yield a final concentration of substrate of ˜100 μM. The fluorescence values were recorded (excitation=400 nm, emission=505 nm) on a plate reading fluorometer immediately after addition of the substrate. The plate was incubated at 70° C. for 60 min. and the fluorescence values were recorded again. The initial and final fluorescence values were subtracted to determine if an active clone was present by an increase in fluorescence over the majority of the other wells.
The excitation and emission wavelengths for the 7-amido-4-methylcoumarins were 380 and 460 nm respectively, and 326 and 450 for the methylumbelliferone.

The nature of series [3]: Organic solvent sensitivity: activity of the amidase in increasing concentrations of DMSO. Type of series: biochemical, Thermococcus GU5L5. The procedure: The activity of the amidase in increasing concentrations of dimethyl sulfoxide (DMSO) was tested as follows: to each well of a microtiter plate was added 10 μL of 3 mM CBZ-L-phe-AMC in DMSO, 25 μL of cell lysate containing the amidase activity, and 250 μL of a variable mixture of DMSO:pH 7.5, 50 mM Hepes buffer. The reactions were heated for 1 hour at 70° C. and the fluorescence measured. […] The filled and open boxes represent individual assays.

Series [4] in a line: Temperature tolerance of the enzyme. The arrangement: species or system Thermococcus GU5L5.

Regarding `Cc1cc(=O)oc2cc(NC(=O)[C@@H](CCCNC(=N)N)NC(=O)OCc3ccccc3)ccc12` [CBZ-D-arg-AMC, Nα-carbonylbenzyloxy-D-arginine-7-amido-4-methylcoumarin], the “Initial Rate” value was determined as 0.3 Fl.U./min in series [1] (DMF 0.4%); 10.1 Fl.U./min in series [1] (DMF 10%); 4.6 Fl.U./min in series [1] (DMF 20%); 1.8 Fl.U./min in series [1] (DMF 30%); 0.9 Fl.U./min in series [1] (DMF 40%); 1.2 Fl.U./min in series [1] (DMF 50%). The “Initial Rate” value in series [1] (DMF 60%) stood at 1.4 Fl.U./min; in series [1] (DMF 75%), 0.1 Fl.U./min; in series [1] (DMF 90%) it was 0.1 Fl.U./min.

With `CSCC[C@H](NC(=O)OCc1ccccc1)C(=O)Nc1ccc2c(C)cc(=O)oc2c1` [CBZ-L-met-AMC, Nα-carbonylbenzyloxy-L-methionine-7-amido-4-methylcoumarin], the “relative activity of the amidase” value in series [2] is given as 1.

Regarding `Cc1cc(=O)oc2cc(NC(=O)[C@H](CCCNC(=N)N)NC(=O)OCc3ccccc3)ccc12` [CBZ-L-arg-AMC, Nα-carbonylbenzyloxy-L-arginine-7-amido-4-methylcoumarin], in series [2], the “relative activity of the amidase” value turned out to be 3. For the same molecule, the “Initial Rate” value was 654 Fl.U./min in series [1] (DMF 0.4%); 2548 Fl.U./min in series [1] (DMF 10%); 1451 Fl.U./min in series [1] (DMF 20%); 541 Fl.U./min in series [1] (DMF 30%); 345 Fl.U./min in series [1] (DMF 40%); 303 Fl.U./min in series [1] (DMF 50%). Moreover, the “Initial Rate” value in series [1] (DMF 60%) stood at 190 Fl.U./min; in series [1] (DMF 75%), 81 Fl.U./min; in series [1] (DMF 90%), 11 Fl.U./min.

Turning to `Cc1cc(=O)oc2cc(NC(=O)[C@H](Cc3ccccc3)NC(=O)OCc3ccccc3)ccc12` [CBZ-L-phe-AMC, Nα-carbonylbenzyloxy-L-phenylalanine-7-amido4-methylcoumarin], the “relative activity of the amidase” value in series [2] is 3.

B1: enzyme: purified thermostable amidase derived from Thermococcus GU5L5, 622 amino acid residues (SEQ ID NO:2) (protein)
chain: MTGIEWNHETFSKFAYLGDPRIRGNLIAYTLTKANMKDNKYESTVVVEDLETGSRRFIENASMPRISPDGRKLAFTCFNEEKKETEIWVADIQTLSAKKVLSTKNVRSMQWNDDSRRLLVVGFKRRDDEDFVFDDDVPVWFDNMGFFDGEKTTFWVLDTEAEEIIEQFEKPRFSSGLWHGDAIVVNVPHREGSKPALFKFYDIVLWKDGEEEKLFERVSFEAVDSDGKRILLRGKKKKRFISEHDWLYLWDGELKPIYEGPLDVWEAKLTEGKVYFLTPDAGRVNLWLWDGKAERVVTGDHWIYGLDVSDGKALLLIMTATRIGELYLYDGELKQVTEYNGPIFRKLKTFEPRHFRFKSKDLEIDGWYLRPEVKEEKAPVIVFVHGGPKGMYGHRFVYEMQLMASKGYYVVFVNPRGSDGYSEDFALRVLERTGLEDFEDIMNGIEEFFKLEPQADRERVGITGISYGGFMTNWALTQSDLFKAGISENGISYWLTSYAFSDIGLWYDVEVIGPNPLENENFRKLSPLFYAQNVKAPILLIHSLEDYRCPLDQSLMFYNVLKDMGKEAYIAIFKRGAHGHSVRGSPRHRPKRYRLFIEFFERKLKKYEEGFEVEKILKGNGN
As for B1, in series [1] (CBZ-L-arg-AMC versus CBZ-D-arg-AMC), the “selectivity for the L enantiomer of the derivatized amino acid substrate” value is “excellent selectivity for the L”. Also, the “concentration of organic solvent tolerated” value in series [3] is more than 40 % DMSO. Also, in series [4], the temperature tolerated entry was “at least 70 °C”.
